Where two headings read alike, the source gives them in different places.
Legend:
[1] = biological target: human TLR7 (Homo sapiens (Human), UniProt Q9NYK1); assay: TLR7 inhibition reporter assay (HEK-Blue SEAP); assay type: cell-based
[2] = biological target: human TLR9 (Homo sapiens (Human), UniProt Q9NR96); assay: TLR9 inhibition reporter assay (HEK-Blue SEAP); settings: read-out: TLR9 IC50;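 further: SEAP driven by an IFN-β minimal promoter with NF-κB and AP-1 sites, read after 22 h, compounds dosed 0.05 nM–50 µM, inhibition scaled between agonist plus DMSO and reference-inhibitor wells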
[3] = biological target: human TLR8 (Homo sapiens (Human), UniProt Q9NR97); assay: TLR8 inhibition reporter assay (HEK-Blue SEAP); settings: read-out: TLR8 IC50;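 further: SEAP driven by IFN-β minimal promoter carrying NF-κB and AP-1 sites, compounds dosed 0.05 nM to 50 µM for 22 h, inhibition scaled between agonist-plus-DMSO and reference-inhibitor wells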
[4] = HEK-Blue cells overexpressing human TLR7, gardiquimod 7.5 μM stimulation, SEAP reporter
[5] = HEK-Blue cells overexpressing human TLR9, ODN2006 5 nM stimulation, SEAP reporter
[6] = HEK-Blue cells overexpressing human TLR8, R848 15.9 μM stimulation, SEAP reporter
[7] = HEK-Blue human TLR7 cells, gardiquimod 7.5 μM
[8] = HEK-Blue human TLR9 cells, ODN2006 5 nM
[9] = HEK-Blue human TLR8 cells, R848 15.9 μM
[10] = HEK-Blue cells overexpressing human TLR7, SEAP reporter, gardiquimod 7.5 μM
[11] = HEK-Blue cells overexpressing human TLR9, SEAP reporter, ODN2006 5 nM
[12] = HEK-Blue cells overexpressing human TLR8, SEAP reporter, R848 15.9 μM

Chain of human TLR7 (Q9NYK1 27-1049): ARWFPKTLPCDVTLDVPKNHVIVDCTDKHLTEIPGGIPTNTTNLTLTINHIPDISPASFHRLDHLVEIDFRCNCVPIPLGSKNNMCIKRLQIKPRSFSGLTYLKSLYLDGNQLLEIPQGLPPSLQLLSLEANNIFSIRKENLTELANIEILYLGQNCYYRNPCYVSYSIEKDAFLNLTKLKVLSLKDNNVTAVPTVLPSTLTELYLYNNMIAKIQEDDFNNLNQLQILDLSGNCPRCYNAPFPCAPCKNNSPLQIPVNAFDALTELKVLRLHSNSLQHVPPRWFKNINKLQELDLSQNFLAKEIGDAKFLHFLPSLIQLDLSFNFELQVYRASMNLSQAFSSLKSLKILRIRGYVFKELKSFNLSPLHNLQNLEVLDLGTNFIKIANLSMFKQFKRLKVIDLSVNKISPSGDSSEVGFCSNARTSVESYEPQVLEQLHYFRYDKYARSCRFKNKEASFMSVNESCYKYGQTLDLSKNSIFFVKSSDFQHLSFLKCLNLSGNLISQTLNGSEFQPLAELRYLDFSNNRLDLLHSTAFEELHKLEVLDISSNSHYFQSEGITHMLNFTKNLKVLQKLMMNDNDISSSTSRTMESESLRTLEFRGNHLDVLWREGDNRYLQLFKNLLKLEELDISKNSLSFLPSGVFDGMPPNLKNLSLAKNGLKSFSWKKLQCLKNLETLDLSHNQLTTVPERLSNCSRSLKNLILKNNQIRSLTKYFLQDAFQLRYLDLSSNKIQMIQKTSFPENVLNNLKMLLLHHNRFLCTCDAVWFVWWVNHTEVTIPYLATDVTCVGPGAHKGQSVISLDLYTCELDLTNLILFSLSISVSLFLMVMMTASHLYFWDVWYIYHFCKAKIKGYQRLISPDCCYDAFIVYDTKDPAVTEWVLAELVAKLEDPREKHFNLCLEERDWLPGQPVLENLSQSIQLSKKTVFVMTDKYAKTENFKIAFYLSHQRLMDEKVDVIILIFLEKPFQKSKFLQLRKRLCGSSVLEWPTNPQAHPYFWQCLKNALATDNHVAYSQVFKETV
Chain of human TLR9 (Q9NR96 26-1032): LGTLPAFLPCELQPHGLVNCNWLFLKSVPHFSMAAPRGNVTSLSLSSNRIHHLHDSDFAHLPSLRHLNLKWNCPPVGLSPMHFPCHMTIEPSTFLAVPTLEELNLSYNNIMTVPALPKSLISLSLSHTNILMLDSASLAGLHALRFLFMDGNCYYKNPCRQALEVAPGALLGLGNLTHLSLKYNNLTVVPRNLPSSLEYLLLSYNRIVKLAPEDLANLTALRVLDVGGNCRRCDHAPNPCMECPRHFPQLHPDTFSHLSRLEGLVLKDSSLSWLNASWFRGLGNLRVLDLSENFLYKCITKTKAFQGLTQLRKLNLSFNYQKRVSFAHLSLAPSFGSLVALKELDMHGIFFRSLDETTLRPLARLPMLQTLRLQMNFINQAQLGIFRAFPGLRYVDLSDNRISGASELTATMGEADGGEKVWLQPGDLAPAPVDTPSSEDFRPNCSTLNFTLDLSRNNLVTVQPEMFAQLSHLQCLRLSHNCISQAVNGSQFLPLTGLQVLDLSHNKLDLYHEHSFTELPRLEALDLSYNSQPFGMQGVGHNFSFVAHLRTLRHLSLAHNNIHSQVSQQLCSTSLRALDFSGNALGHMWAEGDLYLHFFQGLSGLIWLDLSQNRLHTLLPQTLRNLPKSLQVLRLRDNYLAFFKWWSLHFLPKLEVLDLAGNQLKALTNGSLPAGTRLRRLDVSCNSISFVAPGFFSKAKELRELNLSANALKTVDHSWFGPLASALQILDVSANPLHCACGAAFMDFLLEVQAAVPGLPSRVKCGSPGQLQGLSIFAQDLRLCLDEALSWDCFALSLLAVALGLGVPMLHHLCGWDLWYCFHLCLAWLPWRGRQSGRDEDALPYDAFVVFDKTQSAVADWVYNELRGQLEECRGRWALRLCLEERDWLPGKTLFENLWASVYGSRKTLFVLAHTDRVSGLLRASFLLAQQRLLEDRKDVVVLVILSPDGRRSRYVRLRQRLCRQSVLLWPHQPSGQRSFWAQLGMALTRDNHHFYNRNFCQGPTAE
Chain of human TLR8 (Q9NR97 27-1041): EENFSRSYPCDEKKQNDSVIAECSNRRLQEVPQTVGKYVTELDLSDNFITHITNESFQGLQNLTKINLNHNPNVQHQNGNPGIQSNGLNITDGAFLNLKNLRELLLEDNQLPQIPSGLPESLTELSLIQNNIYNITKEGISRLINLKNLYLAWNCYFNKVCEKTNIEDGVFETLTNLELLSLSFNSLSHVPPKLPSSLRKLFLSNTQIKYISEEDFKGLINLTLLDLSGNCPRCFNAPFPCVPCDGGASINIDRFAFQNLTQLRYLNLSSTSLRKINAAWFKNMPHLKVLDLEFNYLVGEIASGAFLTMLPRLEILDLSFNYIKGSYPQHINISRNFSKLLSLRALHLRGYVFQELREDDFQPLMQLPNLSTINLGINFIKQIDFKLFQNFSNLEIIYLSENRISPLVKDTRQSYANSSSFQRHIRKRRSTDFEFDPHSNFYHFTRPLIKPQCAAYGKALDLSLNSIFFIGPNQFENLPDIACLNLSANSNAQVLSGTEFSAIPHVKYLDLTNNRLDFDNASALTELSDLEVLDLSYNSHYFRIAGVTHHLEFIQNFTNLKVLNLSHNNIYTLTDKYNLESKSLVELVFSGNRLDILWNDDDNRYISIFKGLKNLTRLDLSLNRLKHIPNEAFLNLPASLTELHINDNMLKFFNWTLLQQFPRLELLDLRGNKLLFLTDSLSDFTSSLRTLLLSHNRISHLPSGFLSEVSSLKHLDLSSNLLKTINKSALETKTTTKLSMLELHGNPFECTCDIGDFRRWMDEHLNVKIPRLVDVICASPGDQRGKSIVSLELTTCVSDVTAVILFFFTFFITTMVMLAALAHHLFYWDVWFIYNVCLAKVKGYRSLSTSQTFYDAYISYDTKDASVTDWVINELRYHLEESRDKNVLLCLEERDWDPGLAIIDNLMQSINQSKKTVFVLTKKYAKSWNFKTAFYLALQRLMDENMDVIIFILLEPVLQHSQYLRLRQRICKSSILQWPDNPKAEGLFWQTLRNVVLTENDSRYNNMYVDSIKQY

CCN(CCN(C)C)C(=O)c1nc2c(C(C)C)c(-c3cc(OC)c4ncnn4c3)[nH]c2cc1C [Example 6, N-(2-(dimethylamino)ethyl)-N-ethyl-3-isopropyl-2-(8-methoxy-[1,2,4]triazolo[1,5-a]pyridin-6-yl)-6-methyl-1H-pyrrolo[3,2-b]pyridine-5-carboxamide]
IC50 [1, 4]: 0.0003 µM
IC50 [2, 5]: 0.625 µM
IC50 [3, 6]: 0.0032 µM

COc1cc(-c2[nH]c3ccc(C4CCC(N5CCC6(COC6)C5)CC4)nc3c2C(C)C)cn2ncnc12 (stereo not drawn) [Example 1068]
IC50 [1, 7]: 0.00088 µM
IC50 [2, 8]: 2.96 µM
IC50 [3, 9]: 0.0018 µM

Cc1c(-c2[nH]c3ccc(N4CCN(C(=O)CN5CCC5)C[C@H]4C)nc3c2C(C)C)cn2ncnc2c1C [Example 834]
IC50 [1, 7]: 0.00046 µM
IC50 [2, 8]: 4.37 µM
IC50 [3, 9]: 0.0025 µM

Cc1c(-c2[nH]c3ccc(C4CCC(N(C5CC5)C5COC5)CC4)nc3c2C(C)C)cn2cnnc2c1C (stereo not drawn) [Example 237]
IC50 [1, 4]: 0.02 µM
IC50 [2, 5]: 18.2 µM
IC50 [3, 6]: 0.019 µM

Cc1cc(-c2[nH]c3ccc(C4CN(C5COC5)CCO4)nc3c2C(C)C)cn(C)c1=O (stereo not drawn) [Example 667]
IC50 [1, 10]: 0.145 µM
IC50 [2, 11]: > 50 µM
IC50 [3, 12]: 0.711 µM

Cc1cc(-c2[nH]c3ccc(C4CCC(NC5COC5)CC4)nc3c2C(C)C)cn2ncnc12 (stereo not drawn) [Example 284]
IC50 [1, 4]: 0.003 µM
IC50 [2, 5]: 4.04 µM
IC50 [3, 6]: 0.015 µM

CC(C)c1c(-c2cn(C)c3ncccc23)[nH]c2ccc(C3CCC(NCCS(C)(=O)=O)CC3)nc12 (stereo not drawn) [Example 251]
IC50 [1, 4]: 0.0086 µM
IC50 [2, 5]: 1.75 µM
IC50 [3, 6]: 0.013 µM

Cc1c(-c2[nH]c3ccc(N4CCNCC45CC5)nc3c2C(C)C)cn2ncnc2c1C [Example 982]
IC50 [1, 7]: 0.0098 µM
IC50 [2, 8]: 32.8 µM
IC50 [3, 9]: 0.02 µM

Cc1c(-c2[nH]c3ccc(N4CC(NC(=O)CN(C)C)C4)nc3c2C(C)C)cn2ncnc2c1C [Example 15]
IC50 [1, 4]: 0.0073 µM
IC50 [2, 5]: 1.94 µM
IC50 [3, 6]: 0.0043 µM

Cc1c(-c2[nH]c3ccc(N4[C@H](C)CN(CCCS(C)(=O)=O)C[C@H]4C)nc3c2C(C)C)cn2ncnc2c1C [Example 869]
IC50 [1, 7]: 0.0019 µM
IC50 [2, 8]: 40.3 µM
IC50 [3, 9]: 0.034 µM

Cc1cnc(CNC2CCC(c3ccc4[nH]c(-c5cn6ncnc6c(C)c5C)c(C(C)C)c4n3)CC2)cn1 (stereo not drawn) [Example 357]
IC50 [1, 4]: 0.0039 µM
IC50 [2, 5]: 1.05 µM
IC50 [3, 6]: 0.0044 µM

COc1cc(-c2[nH]c3cc(C)c(C4CCC(NCC5(C)COC5)CC4)nc3c2C(C)C)cn2ncnc12 (stereo not drawn) [Example 312]
IC50 [1, 4]: 0.00026 µM
IC50 [2, 5]: 0.577 µM
IC50 [3, 6]: 0.0016 µM

CC(C)c1c(-c2cn(C)c3ncccc23)[nH]c2ccc(N3CCC(N(CC#N)CC#N)CC3)nc12 [Example 51]
IC50 [1, 4]: 0.0051 µM
IC50 [2, 5]: 16.3 µM
IC50 [3, 6]: 0.007 µM

CC(C)c1c(-c2cc(CO)c3ncnn3c2)[nH]c2ccc(C3CCC(NCCC(F)(F)F)CC3)nc12 (stereo not drawn) [Example 307]
IC50 [1, 4]: 0.00086 µM
IC50 [2, 5]: 2.98 µM
IC50 [3, 6]: 0.0027 µM

COc1cc(-c2[nH]c3ccc(C4CN(CCS(C)(=O)=O)C4)nc3c2C(C)C)cn2ncnc12 [Example 647]
IC50 [1, 10]: 0.0023 µM
IC50 [2, 11]: 5.89 µM
IC50 [3, 12]: 0.026 µM

CNC1CCC(c2nc3c(C(C)C)c(-c4cc(OC)c5ncnn5c4)[nH]c3cc2F)CC1 (stereo not drawn) [Example 348]
IC50 [1, 4]: 0.00082 µM
IC50 [2, 5]: 6.96 µM
IC50 [3, 6]: 0.0083 µM

Cc1c(-c2[nH]c3ccc(C4CCC(N5CCC[C@@H]5CO)CC4)nc3c2C(C)C)cn2ncnc2c1C (stereo partly drawn) [Example 377]
IC50 [1, 4]: 0.0021 µM
IC50 [2, 5]: 0.767 µM
IC50 [3, 6]: 0.0022 µM

Cc1c(-c2[nH]c3ccc(N4CCN(C5CCOCC5)CC4)nc3c2C(C)C)cn2ncnc2c1C [Example 101]
IC50 [1, 4]: 0.0037 µM
IC50 [2, 5]: 6.4 µM
IC50 [3, 6]: 0.00025 µM

CNC(=O)CN(C)C1CCC(c2ccc3[nH]c(-c4cc(OC)c5ncnn5c4)c(C(C)C)c3n2)CC1 (stereo not drawn) [Example 228]
IC50 [1, 4]: 0.0033 µM
IC50 [2, 5]: 2.39 µM
IC50 [3, 6]: 0.023 µM

CC(C)c1c(-c2cc(CO)c3ncnn3c2)[nH]c2ccc(N3CCC(NC4CCOCC4)CC3)nc12 [Example 80]
IC50 [1, 4]: 0.0013 µM
IC50 [2, 5]: 4.56 µM
IC50 [3, 6]: 0.0016 µM

CCN(C1CCC(c2ccc3[nH]c(-c4cn5ncnc5c(C)c4C)c(C(C)C)c3n2)CC1)C1COC1 (stereo not drawn) [Example 1038]
IC50 [1, 7]: 0.00098 µM
IC50 [2, 8]: 1.91 µM
IC50 [3, 9]: 0.0013 µM

Cc1c(-c2[nH]c3ccc(N4CCN(CC#N)C[C@@H]4C)nc3c2C(C)C)cn2ncnc2c1C [Example 810]
IC50 [1, 7]: 0.00064 µM
IC50 [2, 8]: 7.36 µM
IC50 [3, 9]: 0.00063 µM

CCCN1CCC(Oc2ccc3[nH]c(-c4cc(OC)c5ncnn5c4)c(C(C)C)c3n2)CC1 [Example 593, 6-(3-isopropyl-5-((1-propylpiperidin-4-yl)oxy)-1H-pyrrolo[3,2-b]pyridin-2-yl)-8-methoxy-[1,2,4]triazolo[1,5-a]pyridine]
IC50 [1, 10]: 0.0014 µM
IC50 [2, 11]: 0.974 µM
IC50 [3, 12]: 0.0026 µM

Cc1c(-c2[nH]c3ccc(C4CCC(N5CC6(CCS6(=O)=O)C5)CC4)nc3c2C(C)C)cn2ncnc2c1C (stereo not drawn) [Example 1076]
IC50 [1, 7]: 0.0016 µM
IC50 [2, 8]: 10.6 µM
IC50 [3, 9]: 0.0018 µM

Cc1c(-c2[nH]c3ccc(N4CCC(N(C)Cc5ncnn5C)CC4)nc3c2C(C)C)cn2ncnc2c1C [Example 63]
IC50 [1, 4]: 0.0074 µM
IC50 [2, 5]: 42.4 µM
IC50 [3, 6]: 0.004 µM

COc1cc(-c2[nH]c3cc(C)c(C4CCC(NC5CCOC5)CC4)nc3c2C(C)C)cn2ncnc12 (stereo not drawn) [Example 329]
IC50 [1, 4]: 0.0016 µM
IC50 [2, 5]: 2.07 µM
IC50 [3, 6]: 0.023 µM

Cc1c(-c2[nH]c3ccc(C4CCC(N5CC(C)(O)C5)CC4)nc3c2C(C)C)cn2ncnc2c1C (stereo not drawn) [Example 1041]
IC50 [1, 7]: 0.00049 µM
IC50 [2, 8]: 2.42 µM
IC50 [3, 9]: 0.00085 µM

Cc1c(-c2[nH]c3ccc(C4CCC5(CC4)CNC5)nc3c2C(C)C)cn2ncnc2c1C [Example 491, 6-(3-isopropyl-5-(2-azaspiro[3.5]nonan-7-yl)-1H-pyrrolo[3,2-b]pyridin-2-yl)-7,8-dimethyl-[1,2,4]triazolo[1,5-a]pyridine]
IC50 [1, 10]: 0.00089 µM
IC50 [2, 11]: 0.677 µM
IC50 [3, 12]: 0.008 µM

CC(C)c1c(-c2cn(C)c3ncccc23)[nH]c2ccc(C3CCC(N4CC5(COC5)C4)CC3)nc12 (stereo not drawn) [Example 245]
IC50 [1, 4]: 0.0027 µM
IC50 [2, 5]: 0.343 µM
IC50 [3, 6]: 0.0047 µM

Cc1c(-c2[nH]c3ccc(N4CC(NCC(=O)N(C)C)C4)nc3c2C(C)C)cn2ncnc2c1C [Example 26]
IC50 [1, 4]: 1.77 µM
IC50 [2, 5]: > 50 µM
IC50 [3, 6]: 2.13 µM

Cc1c(-c2[nH]c3ccc(C4CC(N(CC5(C)COC5)CC5(C)COC5)C4)nc3c2C(C)C)cn2ncnc2c1C (stereo not drawn) [Example 633]
IC50 [1, 10]: 0.04 µM
IC50 [2, 11]: 25.5 µM
IC50 [3, 12]: 0.033 µM

CCN(CC)C1CCC(c2ccc3[nH]c(-c4cn5ncnc5c(C)c4C)c(C(C)C)c3n2)CC1 (stereo not drawn) [Example 411]
IC50 [1, 10]: 0.0063 µM
IC50 [2, 11]: 2.3 µM
IC50 [3, 12]: 0.008 µM

Cc1c(-c2[nH]c3ccc(N4CCN(CCCS(C)(=O)=O)C[C@@H]4C)nc3c2C(C)C)cn2ncnc2c1C [Example 805]
IC50 [1, 7]: 0.0021 µM
IC50 [2, 8]: 24.2 µM
IC50 [3, 9]: 0.00057 µM

Cc1c(-c2[nH]c3ccc(C4CCC(NCCS(=O)(=O)C(F)(F)F)CC4)nc3c2C(C)C)cn2ncnc2c1C (stereo not drawn) [Example 423]
IC50 [1, 10]: 0.175 µM
IC50 [2, 11]: > 50 µM
IC50 [3, 12]: 0.083 µM

CC(C)c1c(-c2cn(CCS(C)(=O)=O)c3ncccc23)[nH]c2ccc(C3CCC(O)CC3)nc12 (stereo not drawn) [Example 260]
IC50 [1, 4]: 0.527 µM
IC50 [2, 5]: 10.9 µM
IC50 [3, 6]: 0.173 µM

CCCCN(CC(=O)N1CCN(c2ccc3[nH]c(-c4cn5ncnc5c(C)c4C)c(C(C)C)c3n2)CC1)C(C)C [Example 882]
IC50 [1, 7]: 0.0033 µM
IC50 [2, 8]: 7.76 µM
IC50 [3, 9]: 0.011 µM

CC(C)c1c(-c2cn(CCS(C)(=O)=O)c3ncccc23)[nH]c2ccc(C3CCC(NCC4(S(C)(=O)=O)CC4)CC3)nc12 (stereo not drawn) [Example 262]
IC50 [1, 4]: 0.17 µM
IC50 [2, 5]: 0.354 µM
IC50 [3, 6]: 0.019 µM

Cc1c(-c2[nH]c3ccc(N4C[C@@H](C)N(CC(N)=O)C[C@H]4C)nc3c2C(C)C)cn2ncnc2c1C [Example 799]
IC50 [1, 7]: 0.005 µM
IC50 [2, 8]: > 50 µM
IC50 [3, 9]: 0.021 µM

CCC[C@H]1CNCCN1c1ccc2[nH]c(-c3cn4ncnc4c(C)c3C)c(C(C)C)c2n1 [Example 986]
IC50 [1, 7]: 0.00063 µM
IC50 [2, 8]: 2.82 µM
IC50 [3, 9]: 0.00038 µM

COc1cc(-c2[nH]c3ccc(C4CCC(NC(C)C)CC4)nc3c2C(C)C)cn2ncnc12 (stereo not drawn) [Example 193]
IC50 [1, 4]: 0.0015 µM
IC50 [2, 5]: 0.648 µM
IC50 [3, 6]: 0.006 µM

CC(C)c1c(-c2cc(CO)c3ncnn3c2)[nH]c2ccc(C3CCC(NC4COC4)CC3)nc12 (stereo not drawn) [Example 220]
IC50 [1, 4]: 0.0067 µM
IC50 [2, 5]: 1.02 µM
IC50 [3, 6]: 0.0061 µM

COCc1cc(-c2[nH]c3ccc(C4CCC(NCC(=O)N(C)C)CC4)nc3c2C(C)C)cn2ncnc12 (stereo not drawn) [Example 213]
IC50 [1, 4]: 0.0095 µM
IC50 [2, 5]: 0.706 µM
IC50 [3, 6]: 0.017 µM

CCCCN1CCN(c2ccc3[nH]c(-c4cc(OC)c5ncnn5c4)c(C(C)C)c3n2)CC1 [Example 115]
IC50 [1, 4]: 0.0012 µM
IC50 [2, 5]: 3.48 µM
IC50 [3, 6]: 0.00049 µM

Cc1c(-c2[nH]c3ccc(N4CC5(CN(C)C5)C4)nc3c2C(C)C)cn2ncnc2c1C [Example 741, 6-(3-isopropyl-5-(6-methyl-2,6-diazaspiro[3.3]heptan-2-yl)-1H-pyrrolo[3,2-b]pyridin-2-yl)-7,8-dimethyl-[1,2,4]triazolo[1,5-a]pyridine]
IC50 [1, 10]: 0.0019 µM
IC50 [2, 11]: 3.03 µM
IC50 [3, 12]: 0.0065 µM

CCN(CC(=O)N(C)C)C1CCC(c2ccc3[nH]c(-c4cn5ncnc5c(C)c4C)c(C(C)C)c3n2)CC1 (stereo not drawn) [Example 462]
IC50 [1, 10]: 0.0069 µM
IC50 [2, 11]: 4.54 µM
IC50 [3, 12]: 0.0084 µM

Source: patent US10544143B2, “4-azaindole compounds” (BRISTOL-MYERS SQUIBB COMPANY, priority 2017, dated 2020)
